Test results published in patent publication US9370474B2, “High-clarity aqueous concentrates of 4-hexylresorcinol” (JOHNSON & JOHNSON CONSUMER INC., priority 2009, dated 2016).

How the values were obtained:
[1] = Clarity of mixtures of resorcinol/phenol analogues with water; type: physicochemical; details: separately mixed with water at 50% and 75% concentrations
Text: 4-Octylresorcinol and 3-methoxyphenol (from Sigma-Aldrich of St. Louis, Mo.) were separately mixed with water at 50% and 75% concentrations.

[2] = cited from earlier work

Clarity / appearance of mixtures with water [1] | Structure (SMILES) | Water solubility (prior art characterization) [2]
None of the mixtures were clear | COc1cccc(O)c1 [3-methoxyphenol] | 
None of the mixtures were clear | CCCCCCCCc1ccc(O)cc1O [4-Octylresorcinol] | 
 | CCCCCCc1ccc(O)cc1O [Example 4-HR, 4-Hexylresorcinol] | water-insoluble
